According to US12624008B2, “4-((6-oxopyrimidin-1(6H)-yl)methyl)benzoic acid as an inducer of Z A1AT secretion for treating AATD” (CENTESSA PHARMACEUTICALS (UK) LIMITED, priority 2020, dated 2026):

Tested on: Z A1AT
Test: Z A1AT cell secretion assay using HEK-Z cells (ELISA of supernatant)
Assay type: cell-based, human
Conditions: HEK-Z cells, 10, 33, 100 and 333 nM, 48 h, FIG. 1 y-axis in ng/ml
Protocol: HEK-Z cells, a human embryonic kidney cell line stably transfected with the human Z AAT gene, were plated into 96 well plates (3.0×10^5 cells/ml with 200 μl of media/well) overnight at 37° C. in a humidified atmosphere containing 5% CO2. Following incubation cells were washed with 200 μl serum-free media three times and media was replaced with treatments in quadruplicate using vehicle, 10 μM suberanilohydroxamic acid (SAHA) or 4-((6-oxopyrimidin-1(6H)-yl)methyl)benzoic acid (at concentrations of 10, 33, 100 and 333 nM) for 48 h in a 37° C. incubator in a final volume of 200 μl. At the end of the incubation step the supernatants were removed from the wells, centrifuged at 1000×g at 4° C. for 10 min and were assayed for Z A1AT levels by ELISA (Human Serpin A1/α1-antitrypsin duo set ELISA, R&D Systems, DY1268) per manufacturer's instructions.
Briefly, a 96 well plate was coated with human A1AT capture antibody overnight at room temperature (1:180 dilution from stock, 100 μl final volume/well). […] After which, 50 μl stop solution (2M H2SO4) was added and optical density (OD) of each well was read at 450 nm with 570 nm blank subtracted from each well using a microplate reader. A 4 parameter logistic curve was constructed using GraphPad Prism 8 and Z A1AT concentrations were determined in each sample by interpolation from a standard curve and multiplying by the appropriate dilution factor.

SMILES: O=C(O)c1ccc(Cn2cnccc2=O)cc1 [4-((6-oxopyrimidin-1(6H)-yl)methyl)benzoic acid]
- secretion of Z A1AT (concentration of Z A1AT in the cell supernatant): increased in a dose dependent manner
